Like-named read-outs stand apart in the source and are kept apart here.
Biological target: T1, GLUT1 (Homo sapiens, UniProt P11166)
T1 sequence (P11166 1-492): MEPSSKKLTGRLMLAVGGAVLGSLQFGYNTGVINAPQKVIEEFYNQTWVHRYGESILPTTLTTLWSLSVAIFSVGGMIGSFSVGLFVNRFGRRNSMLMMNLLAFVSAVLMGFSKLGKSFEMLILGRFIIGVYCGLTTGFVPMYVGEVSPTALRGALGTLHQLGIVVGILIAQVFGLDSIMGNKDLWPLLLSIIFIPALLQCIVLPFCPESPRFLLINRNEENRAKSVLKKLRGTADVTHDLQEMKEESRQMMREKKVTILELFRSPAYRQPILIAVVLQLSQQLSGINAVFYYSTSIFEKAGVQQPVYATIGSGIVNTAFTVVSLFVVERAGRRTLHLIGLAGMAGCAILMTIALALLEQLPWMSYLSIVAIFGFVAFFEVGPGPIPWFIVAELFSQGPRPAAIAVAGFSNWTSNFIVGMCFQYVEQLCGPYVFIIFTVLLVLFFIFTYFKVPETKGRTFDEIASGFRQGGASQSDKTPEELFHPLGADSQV
Test: Indirect measurement of GLUT1 activity by quantification of intracellular ATP levels (glucose induced ATP increase)
Format: cell-based
Set-up: endogenous in cells; host or cells: DLD1 or CHO-K1
Details: read-out: IC50 regarding glucose induced ATP increase (GLUT1 inhibition)
Source text: Indirect Measurement of GLUT1 and GLUT2 Activity by Quantification of Intracellular ATP Levels
It is well known that a combination of small-molecule inhibitors of mitochondrial electron transport chain and glucose catabolism synergistically suppress ATP production and impair cellular viability (Ulanovskaya et al., 2008, 2011; Liu, et al. 2001). We therefore used DLD1 or CHO-K1 cells in combination with an oxidative phosphorylation inhibitor to identify GLUT1 and GLUT2 inhibitors. Cell lines were maintained in DMEM medium supplemented with 10% FCS and 1% Penicillin-Streptomycin solution and 2% Glutamax. The cells were treated with trypsin and seeded into 384 plates at a density of 4000 cells/well. The cells were then cultured overnight in glucose free media containing 1% FCS to reduce intracellular ATP levels. […] The CellTiter-Glo® Luminescent Cell Viability Assay from Promega was then used to measure ATP Levels.

With “6-cyano N^4-[1-(4-cyanobenzyl)-5-methyl-3-(trifluoromethyl)-1H-pyrazol-4-yl]quinoline-2,4-dicarboxamide [Example 337]” as the compound, how does the IC50 (DLD1 cells, 0.1 mM glucose, 1 μM Rotenone, 15 min, CellTiter-Glo ATP readout, IC50 values standardized to cytochalasin B IC50 values) read?
The IC50 was 1.9 nM.

For `Cc1nn(C(C)c2ccc(C#N)cc2)c(C)c1NC(=O)c1cc(C(N)=O)nc2ccccc12` (racemic) [Example 329, (±)-N^4-{1-[1-(4-cyanophenyl)ethyl]-3,5-dimethyl-1H-pyrazol-4-yl}quinoline-2,4-dicarboxamide], which IC50 is on record?
Its IC50 is 1.1 nM.

How did the IC50 turn out when `Cc1nn(C(C)c2ccc(C#N)cc2)c(C)c1NC(=O)c1cc(C(N)=O)nc2cc(F)c(Cl)cc12` (racemic) [Example 330, (±)-6-chloro-N^4-{1-[1-(4-cyanophenyl)ethyl]-3,5-dimethyl-1H-pyrazol-4-yl}-7-fluoroquinoline-2,4-dicarboxamide] was run?
Its IC50 is 1.3 nM.

With `Cc1nn(C(C)c2ccc(C#N)cc2)c(C)c1NC(=O)c1cc(C(N)=O)nc2c(F)cccc12` (racemic) [Example 331, (±)-N^4-{1-[1-(4-cyanophenyl)ethyl]-3,5-dimethyl-1H-pyrazol-4-yl}-8-fluoroquinoline-2,4-dicarboxamide] as the compound, how does the IC50 read?
Its IC50 is 2.5 nM.

`Cc1c(NC(=O)c2cc(C(N)=O)nc3ccccc23)c(C(F)(F)F)nn1C(C)c1ccc(C#N)cc1` (racemic) [Example 333, (±)-N^4-{1-[1-(4-cyanophenyl)ethyl]-5-methyl-3-(trifluoromethyl)-1H-pyrazol-4-yl}quinoline-2,4-dicarboxamide] was tested. Which IC50 did it give?
Its IC50 is 0.6 nM.

Which IC50 does the source give for `Cc1c(NC(=O)c2cc(C(N)=O)nc3cc(F)ccc23)c(C(F)(F)F)nn1C(C)c1ccccc1` (racemic) [Example 334, (±)-7-fluoro-N^4-[5-methyl-1-(1-phenylethyl)-3-(trifluoromethyl)-1H-pyrazol-4-yl]quinoline-2,4-dicarboxamide] here?
The IC50 was 7.5 nM.

For `CCOC(=O)N=S(C)(=O)c1ccc(Cn2nc(C)c(NC(=O)c3cc(C(N)=O)nc4ccccc34)c2C)cc1` (racemic) [Example 376, (±)-ethyl [{4-[(4-{[(2-carbamoylquinolin-4-yl)carbonyl]amino}-3,5-dimethyl-1H-pyrazol-1-yl)methyl]phenyl}(methyl)oxido-λ^6-sulfanylidene]carbamate], which IC50 is on record?
The IC50 was 642 nM.

Which IC50 does the source give for `Cc1nn(Cc2ccc(S(C)(=N)=O)cc2)c(C)c1NC(=O)c1cc(C(N)=O)nc2ccccc12` (racemic) [Example 377] here?
Its IC50 is 1100 nM.

Which IC50 does the source give for `Cc1c(NC(=O)c2cc([S+](C)[O-])nc3ccccc23)c(C(F)(F)F)nn1Cc1ccc(C#N)cc1` (racemic) [Example 383, (±)-N-[1-(4-cyanobenzyl)-5-methyl-3-(trifluoromethyl)-1H-pyrazol-4-yl]-2-(methylsulfinyl)quinoline-4-carboxamide] here?
Its IC50 is 8.3 nM.

With `Cc1c(NC(=O)c2cc(S(C)=NC#N)nc3ccccc23)c(C(F)(F)F)nn1Cc1ccc(C#N)cc1` (racemic) [Example 385, (±)-N-[1-(4-cyanobenzyl)-5-methyl-3-(trifluoromethyl)-1H-pyrazol-4-yl]-2-(N-cyano-S-methylsulfinimidoyl)quinoline-4-carboxamide] as the compound, how does the IC50 read?
The IC50 was 81.7 nM.

For `Cc1c(NC(=O)c2cc(S(C)(=O)=NC#N)nc3ccccc23)c(C(F)(F)F)nn1Cc1ccc(C#N)cc1` (racemic) [Example 386, (±)-N-[1-(4-cyanobenzyl)-5-methyl-3-(trifluoromethyl)-1H-pyrazol-4-yl]-2-(N-cyano-S-methylsulfonimidoyl)quinoline-4-carboxamide], which IC50 is on record?
Its IC50 is 43.2 nM.

How did the IC50 turn out when `Cc1c(NC(=O)c2cc(S(C)(=N)=O)nc3ccccc23)c(C(F)(F)F)nn1Cc1ccc(C#N)cc1` (racemic) [Example 387, (±)-N-[1-(4-cyanobenzyl)-5-methyl-3-(trifluoromethyl)-1H-pyrazol-4-yl]-2-(S-methylsulfonimidoyl)quinoline-4-carboxamide] was run?
Its IC50 is 146 nM.

With `Cc1nn(Cc2ccc(C(=O)NCC3CCO3)cn2)c(C)c1NC(=O)c1cc(C(F)(F)F)nc2ccc(Br)cc12` (racemic) [Example 1124] as the compound, how does the IC50 read?
The IC50 was 72.6 nM.

How did the IC50 turn out when `Cc1nn(Cc2ccc(C(=O)N3CCC(O)C3)cc2)c(C)c1NC(=O)c1cc(C(F)(F)F)nc2ccc(Br)cc12` (racemic) [Example 1161] was run?
The IC50 was 162 nM.

Which IC50 does the source give for `Cc1nn(Cc2ccc(C(=O)N3CCCC(O)C3)cc2)c(C)c1NC(=O)c1cc(C(F)(F)F)nc2ccc(Br)cc12` (racemic) [Example 1162] here?
The IC50 was 164 nM.

For `Cc1nn(Cc2ccc(C(=O)NC3CCNC3=O)cc2)c(C)c1NC(=O)c1cc(C(F)(F)F)nc2ccc(Br)cc12` (racemic) [Example 1166], which IC50 is on record?
The IC50 was 170 nM.

`Cc1nn(C(C)c2ccccc2)c(C)c1NC(=O)c1cc(C(F)(F)F)nc2ccc(Br)cc12` (racemic) [Example 1360] was tested. Which IC50 did it give?
The IC50 was 21.6 nM.

How did the IC50 turn out when `COc1cc(C(=O)Nc2c(C)nn(C(C)c3ccccc3)c2C)c2ccccc2n1` (racemic) [Example 1361] was run?
Its IC50 is 36.9 nM.

Which IC50 does the source give for `Cc1nn(C(C)c2ccccc2)c(C)c1NC(=O)c1cc(C(N)=O)nc2ccccc12` (racemic) [Example 1362] here?
The IC50 was 5.8 nM.

For `Cc1nn(C(C)c2ccccc2)c(C)c1NC(=O)c1cc(C(N)=O)nc2cc(F)c(Cl)cc12` (racemic) [Example 1363], which IC50 is on record?
Its IC50 is 1.8 nM.

For `Cc1nn(C(C)c2ccc(F)cc2)c(C)c1NC(=O)c1cc(C(N)=O)nc2ccccc12` (racemic) [Example 1364], which IC50 is on record?
Its IC50 is 125 nM.

How did the IC50 turn out when `Cc1nn(C(C)c2ccc(F)cc2)c(C)c1NC(=O)c1cc(C(F)(F)F)nc2ccc(Br)cc12` (racemic) [Example 1374] was run?
Its IC50 is 42.6 nM.

`Cc1nn(C(C)CCc2ccc(F)cc2)c(C)c1NC(=O)c1cc(C(F)(F)F)nc2ccc(Br)cc12` (racemic) [Example 1378] was tested. Which IC50 did it give?
The IC50 was 643 nM.

How did the IC50 turn out when `Cc1nn(C(C)CCc2ccc(F)cc2)c(C)c1NC(=O)c1cc(C(N)=O)nc2ccccc12` (racemic) [Example 1379] was run?
The IC50 was 39.4 nM.

For `Cc1nn(C(C)CCc2ccc(F)cc2)c(C)c1NC(=O)c1cc(C(N)=O)nc2cc(F)c(Cl)cc12` (racemic) [Example 1380], which IC50 is on record?
The IC50 was 3.7 nM.

How did the IC50 turn out when `Cc1c(NC(=O)c2cc(C(N)=O)nc3ccccc23)c(C(F)(F)F)nn1C(C)c1ccccc1` (racemic) [Example 1397] was run?
The IC50 was 4.3 nM.

How did the IC50 turn out when `Cc1c(NC(=O)c2cc(C(F)(F)F)nc3ccc(Br)cc23)c(C(F)(F)F)nn1C(C)c1ccccc1` (racemic) [Example 1398] was run?
The IC50 was 38.9 nM.

`Cc1nn(Cc2ccc(S(C)(=N)=O)cc2)c(C)c1NC(=O)c1cc(C(F)(F)F)nc2ccc(Br)cc12` (racemic) [Example 1427] was tested. Which IC50 did it give?
Its IC50 is 26.9 nM.

With `CCOC(=O)N=S(C)(=O)c1ccc(Cn2nc(C)c(NC(=O)c3cc(C(F)(F)F)nc4ccc(Br)cc34)c2C)cc1` (racemic) [Example 1433] as the compound, how does the IC50 read?
The IC50 was 717 nM.

How did the IC50 turn out when `Cc1c(NC(=O)c2cc(C(N)=O)nc3ccccc23)c(C(F)(F)F)nn1Cc1ccc(C(C)O)cc1` (racemic) [Example 1615] was run?
Its IC50 is 59.4 nM.

`Cc1nn(Cc2ccc(C(C)O)cc2)c(C)c1NC(=O)c1cc(C(N)=O)nc2ccccc12` (racemic) [Example 1635] was tested. Which IC50 did it give?
The IC50 was 45.4 nM.

With `Cc1c(NC(=O)c2cc(C(N)=O)nc3ccccc23)c(C(F)(F)F)nn1Cc1cccc(C(C)O)c1` (racemic) [Example 1644] as the compound, how does the IC50 read?
The IC50 was 184 nM.

How did the IC50 turn out when `Cc1nn(Cc2cccc(C(C)O)c2)c(C)c1NC(=O)c1cc(C(N)=O)nc2ccccc12` (racemic) [Example 1645] was run?
The IC50 was 319 nM.

How did the IC50 turn out when `Cc1nn(Cc2ccc(C(=O)N[C@H](C)[C@@H](C)O)cc2)c(C)c1NC(=O)c1cc(C(F)(F)F)nc2ccc(Br)cc12` (relative stereo) [Example 1057] was run?
The IC50 was 15.1 nM.

Which IC50 does the source give for `Cc1c(NC(=O)c2cc(C(N)=O)nc3cc(F)ccc23)c(C(F)(F)F)nn1C(C)c1ccccc1` (single isomer, unassigned) [Example 335, (R or S)-7-fluoro-N^4-[5-methyl-1-(1-phenylethyl)-3-(trifluoromethyl)-1H-pyrazol-4-yl]quinoline-2,4-dicarboxamide] here?
Its IC50 is 1.6 nM.

For `Cc1c(NC(=O)c2cc(C(N)=O)nc3cc(F)ccc23)c(C(F)(F)F)nn1C(C)c1ccccc1` (single isomer, unassigned) [Example 336, (S or R)-7-fluoro-N^4-[5-methyl-1-(1-phenylethyl)-3-(trifluoromethyl)-1H-pyrazol-4-yl]quinoline-2,4-dicarboxamide], which IC50 is on record?
Its IC50 is 150 nM.

`Cc1c(NC(=O)c2cc(C(N)=O)nc3cc(F)ccc23)c(C(F)(F)F)nn1C(C)c1ccccc1` (single isomer, unassigned) [Example 379, (R or S)-7-fluoro-N^4-[5-methyl-1-(1-phenylethyl)-3-(trifluoromethyl)-1H-pyrazol-4-yl]quinoline-2,4-dicarboxamide] was tested. Which IC50 did it give?
Its IC50 is 862 nM.

With `COc1ccc(Cn2nc(C)c(NC(=O)c3cc(OC)nc4ccccc34)c2C)cc1` [Example 1, 2-methoxy-N-[1-(4-methoxybenzyl)-3,5-dimethyl-1H-pyrazol-4-yl]quinoline-4-carboxamide] as the compound, how does the IC50 read?
Its IC50 is 1.6 nM.
